Results reported in US11000033B2, “Ketone or oxime compound, and herbicide” (NISSAN CHEMICAL CORPORATION, priority 2014, dated 2021).

Assays:
Digitaria ciliaris = experiment: Test Example 5: herbicidal effect by foliage application, plastic box (symbol F); format: in vivo; settings: 320 g/ha, 3 weeks after application
Outline: (§1)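 Effect is rated 3 weeks after a foliar spray of water-diluted emulsion concentrate at a predetermined herbicide amount. Plants had grown 14 days in a 25° C. to 30° C. greenhouse from seed in sterilized diluvial soil.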

[1] = tested on: Echinochloa crus-galli var. crus-galli; experiment: Test Example 5: herbicidal effect by foliage application, plastic box (symbol H); format: in vivo; settings: 320 g/ha, 3 weeks after application
Outline: as §1

Structure (SMILES) | F: Digitaria ciliaris, herbicidal effect (criteria of Test Example 1) (Digitaria ciliaris) | H: Echinochloa crus-galli var. crus-galli, herbicidal effect (criteria of Test Example 1) [1] | F: Digitaria ciliaris, herbicidal effect grade (Digitaria ciliaris) | H: Echinochloa crus-galli var. crus-galli, herbicidal effect grade [1]
CON=C(C)CC1CC(OS(=O)(=O)N(C)C)=C(c2c(C)cc(-c3ccc(F)cc3)cc2C)C1=O (mixture of isomers) [6-060] | 5 (Herbicidal ratio of 90% or more (almost completely withered)) | 5 (Herbicidal ratio of 90% or more (almost completely withered)) |  | 
CON=C(C)CC1CC(OC(=O)COc2ccccc2)=C(c2c(C)cc(-c3ccc(Cl)cc3)cc2OC)C1=O (stereo not shown) [6-079] | 5 (Herbicidal ratio of 90% or more (almost completely withered)) | 5 (Herbicidal ratio of 90% or more (almost completely withered)) |  | 
CC(CC1CC(O)=C(c2c(C)cc(C)cc2C)C1=O)=NOCc1ccccc1 (stereo not shown) [1-020] |  |  | 5 (Herbicidal ratio of 90% or more (almost completely withered)) | 5 (Herbicidal ratio of 90% or more (almost completely withered))
C#CCON=C(C)CC1CC(O)=C(c2c(C)cc(C)cc2C)C1=O (stereo not shown) [1-019] |  |  | 5 (Herbicidal ratio of 90% or more (almost completely withered)) | 5 (Herbicidal ratio of 90% or more (almost completely withered))
CON=C(C)CC1CC(OC(=O)N2CCOCC2)=C(c2c(C)cc(-c3ccc(Cl)cc3)cc2C)C1=O (mixture of isomers) [6-062] | 5 (Herbicidal ratio of 90% or more (almost completely withered)) | 5 (Herbicidal ratio of 90% or more (almost completely withered)) |  | 
COC(=O)CON=C(C)CC1CC(O)=C(c2c(C)cc(C)cc2C)C1=O (stereo not shown) [1-023] |  |  | 2 (Herbicidal ratio of 20% or higher and lower than 40%) | 4 (Herbicidal ratio of 70% or higher and lower than 90%)
CON=C(C)CC1CC(OC(=O)N2CCOCC2)=C(c2c(C)cc(-c3ccc(F)cc3)cc2C)C1=O (mixture of isomers) [6-059] | 5 (Herbicidal ratio of 90% or more (almost completely withered)) | 5 (Herbicidal ratio of 90% or more (almost completely withered)) |  | 
CON=C(C)CC1CC(OC(=O)SC(C)(C)C)=C(c2c(C)cc(-c3ccc(Cl)cc3)cc2C)C1=O (stereo not shown) [6-082] | 5 (Herbicidal ratio of 90% or more (almost completely withered)) | 5 (Herbicidal ratio of 90% or more (almost completely withered)) |  | 
CON=C(C)CC1CC(OC(=O)N2CCOCC2)=C(c2c(C)cc(-c3ccc(F)c(Cl)c3)cc2C)C1=O (stereo not shown) [6-093] | 5 (Herbicidal ratio of 90% or more (almost completely withered)) | 5 (Herbicidal ratio of 90% or more (almost completely withered)) |  | 
CON=C(C)CC1CC(O)=C(c2c(C)cc(-c3ccc(Cl)cc3Cl)cc2C)C1=O (stereo not shown) [6-088] | 5 (Herbicidal ratio of 90% or more (almost completely withered)) | 5 (Herbicidal ratio of 90% or more (almost completely withered)) |  | 
CC(=O)CC1CC(O)=C(c2c(C)cc(-c3ccccc3)cc2C)C1=O (stereo not shown) [7-004] | 5 (Herbicidal ratio of 90% or more (almost completely withered)) | 5 (Herbicidal ratio of 90% or more (almost completely withered)) |  | 
CON=C(C)CC1CC(OC(=O)C(C)(C)CCl)=C(c2c(C)cc(C)cc2C)C1=O (stereo not shown) [1-016] |  |  | 5 (Herbicidal ratio of 90% or more (almost completely withered)) | 5 (Herbicidal ratio of 90% or more (almost completely withered))
CCc1cc(-c2ccc(Cl)cc2)cc(C)c1C1=C(O)CC(CC(C)=NOC)C1=O (stereo not shown) [6-066] | 5 (Herbicidal ratio of 90% or more (almost completely withered)) | 5 (Herbicidal ratio of 90% or more (almost completely withered)) |  | 
CON=C(C)CC1CC(OC(=O)COc2ccccc2)=C(c2c(C)cc(-c3ccc(Cl)cc3Cl)cc2C)C1=O (stereo not shown) [6-092] | 5 (Herbicidal ratio of 90% or more (almost completely withered)) | 4 (Herbicidal ratio of 70% or higher and lower than 90%) |  | 
CON=C(C)CC1CC(OC(=O)N2CCCCC2)=C(c2c(C)cc(C)cc2OC)C1=O (stereo not shown) [6-111] | 5 (Herbicidal ratio of 90% or more (almost completely withered)) | 5 (Herbicidal ratio of 90% or more (almost completely withered)) |  | 
CC(=O)CC1CC(O)=C(c2c(C)cc(Br)cc2C)C1=O (stereo not shown) [7-002] | 5 (Herbicidal ratio of 90% or more (almost completely withered)) | 5 (Herbicidal ratio of 90% or more (almost completely withered)) |  | 

Structure (SMILES) | F: Digitaria ciliaris, herbicidal effect (criteria of Test Example 1) (Digitaria ciliaris) | H: Echinochloa crus-galli var. crus-galli, herbicidal effect (criteria of Test Example 1) [1] | F: Digitaria ciliaris, herbicidal effect grade (Digitaria ciliaris) | H: Echinochloa crus-galli var. crus-galli, herbicidal effect grade [1]
CON=C(C)CC1CC(O)=C(c2c(F)cc(C)cc2OC)C1=O (stereo not shown) [6-108] | 5 (Herbicidal ratio of 90% or more (almost completely withered)) | 5 (Herbicidal ratio of 90% or more (almost completely withered)) |  | 
CON=C(C)CC1CC(OC(=O)C2CC2)=C(c2c(C)cc(C)cc2C)C1=O (stereo not shown) [1-015] |  |  | 5 (Herbicidal ratio of 90% or more (almost completely withered)) | 5 (Herbicidal ratio of 90% or more (almost completely withered))
CON=C(C)CC1CC(O)=C(c2c(C)cc(-c3ncccn3)cc2C)C1=O (mixture of isomers) [6-057] | 5 (Herbicidal ratio of 90% or more (almost completely withered)) | 5 (Herbicidal ratio of 90% or more (almost completely withered)) |  | 
CC(=O)CC1CC(O)=C(c2c(C)cc(C)cc2Br)C1=O (stereo not shown) [7-011] | 4 (Herbicidal ratio of 70% or higher and lower than 90%) | 5 (Herbicidal ratio of 90% or more (almost completely withered)) |  | 
C=CCON=C(C)CC1CC(O)=C(c2c(C)cc(C)cc2C)C1=O (stereo not shown) [1-018] |  |  | 5 (Herbicidal ratio of 90% or more (almost completely withered)) | 5 (Herbicidal ratio of 90% or more (almost completely withered))
CON=C(C)CC1CC(O)=C(c2c(C)cc(-c3ccc(Cl)cc3F)cc2C)C1=O (stereo not shown) [6-084] | 5 (Herbicidal ratio of 90% or more (almost completely withered)) | 5 (Herbicidal ratio of 90% or more (almost completely withered)) |  | 
CON=C(C)CC1CC(OC(=O)CCCC(C)=O)=C(c2c(C)cc(-c3ccc(Cl)cc3)cc2C)C1=O (stereo not shown) [6-080] | 5 (Herbicidal ratio of 90% or more (almost completely withered)) | 5 (Herbicidal ratio of 90% or more (almost completely withered)) |  | 
CON=C(C)C(C)C1CC(O)=C(c2c(C)cc(Br)cc2OC)C1=O (stereo not shown) [6-113] | 5 (Herbicidal ratio of 90% or more (almost completely withered)) | 5 (Herbicidal ratio of 90% or more (almost completely withered)) |  | 
CON=C(C)CC1CC(OC(=O)N2CCOCC2)=C(c2c(C)cc(C)cc2OC)C1=O (stereo not shown) [6-094] | 5 (Herbicidal ratio of 90% or more (almost completely withered)) | 5 (Herbicidal ratio of 90% or more (almost completely withered)) |  | 
CON=C(C)CC1CC(OCOC(=O)c2ccccc2)=C(c2c(C)cc(-c3ccc(Cl)cc3)cc2C)C1=O (stereo not shown) [6-083] | 5 (Herbicidal ratio of 90% or more (almost completely withered)) | 5 (Herbicidal ratio of 90% or more (almost completely withered)) |  | 
CON=C(C)C(=NOC)C1CC(O)=C(c2c(C)cc(C)cc2C)C1=O (stereo not shown) [8-003] |  |  | 0 (Herbicidal ratio of 5% or lower (almost no effect)) | 0 (Herbicidal ratio of 5% or lower (almost no effect))
CON=C(C)CC1CC(OC(=O)COc2ccccc2)=C(c2c(C)cc(-c3ccc(Cl)cc3)cc2C)C1=O (mixture of isomers) [6-061] | 5 (Herbicidal ratio of 90% or more (almost completely withered)) | 5 (Herbicidal ratio of 90% or more (almost completely withered)) |  | 
CON=C(C)CC1CC(O)=C(c2c(C)cc(C(C)=NOC)cc2C)C1=O (stereo not shown) [6-065] | 5 (Herbicidal ratio of 90% or more (almost completely withered)) | 5 (Herbicidal ratio of 90% or more (almost completely withered)) |  | 
COc1cc(C)c(C2=C(O)CC(CC(C)=O)C2=O)c(C)c1 (stereo not shown) [7-020] | 5 (Herbicidal ratio of 90% or more (almost completely withered)) | 4 (Herbicidal ratio of 70% or higher and lower than 90%) |  | 
CON=C(C)CC1CC(OC(=O)C(C)(C)Oc2ccccc2)=C(c2c(C)cc(C)cc2C)C1=O (stereo not shown) [1-017] |  |  | 5 (Herbicidal ratio of 90% or more (almost completely withered)) | 5 (Herbicidal ratio of 90% or more (almost completely withered))
CON=C(C)CC1CC(O)=C(c2c(C)cc(C)cc2SC)C1=O (stereo not shown) [6-075] | 1 (Herbicidal ratio of 5% or higher and lower than 20%) | 2 (Herbicidal ratio of 20% or higher and lower than 40%) |  | 
